ChEMBL document CHEMBL3593215, “Design, synthesis and antiproliferative activities of novel benzamides derivatives as HDAC inhibitors” (Eur J Med Chem, 2015)

What was measured:
Histone deacetylase 1 [1] = target: T1, Histone deacetylase 1 (Homo sapiens, UniProt Q13547); assay: Inhibition of HDAC1 (unknown origin) preincubated for 5 mins followed by fluorogenic substrate addition measured after 30 mins by microplate reader analysis
HCT-116 = assay: Cytotoxicity against human HCT116 cells assessed as inhibition of cell proliferation after 72 hrs by MTT assay; type: functional, cell-based; conditions: HCT-116, 72 h
MCF7 = assay: Cytotoxicity against human MCF7 cells assessed as inhibition of cell proliferation after 72 hrs by MTT assay; type: functional, cell-based; conditions: MCF7, 72 h
A549 [2] = assay: Cytotoxicity against human A549 cells assessed as inhibition of cell proliferation after 72 hrs by MTT assay; type: functional, cell-based; conditions: A549, 72 h
Histone deacetylase 1 [3] = target: T1, Histone deacetylase 1; assay: Potency index, ratio of MS-275 IC50 to compound IC50 for HDAC1 (unknown origin)
A549 [4] = assay: Potency index, ratio of MS-275 IC50 to compound IC50 for human A549 cells; type: functional
[5] = Elimination half life in Sprague-Dawley rat at 5 mg/kg, iv; type: ADME, organism-based; conditions: in vivo, read-out: beta t1/2 (converted)
[6] = Elimination half life in Sprague-Dawley rat at 25 mg/kg, po; type: ADME, organism-based; conditions: in vivo, read-out: beta t1/2 (converted)
[7] = Tmax in Sprague-Dawley rat at 25 mg/kg, po; type: ADME, organism-based; conditions: in vivo
[8] = AUClast in Sprague-Dawley rat at 25 mg/kg, po; type: ADME, organism-based; parameters: dose 25 mg/kg, route oral, time 0 - last; conditions: in vivo
[9] = AUCinfinity_obs in Sprague-Dawley rat at 25 mg/kg, po; type: ADME, organism-based; parameters: dose 25 mg/kg, time infinity, route oral; conditions: in vivo
[10] = Oral bioavailability in Sprague-Dawley rat at 25 mg/kg; type: ADME, organism-based; conditions: in vivo

T1 sequence (Q13547 whole entry): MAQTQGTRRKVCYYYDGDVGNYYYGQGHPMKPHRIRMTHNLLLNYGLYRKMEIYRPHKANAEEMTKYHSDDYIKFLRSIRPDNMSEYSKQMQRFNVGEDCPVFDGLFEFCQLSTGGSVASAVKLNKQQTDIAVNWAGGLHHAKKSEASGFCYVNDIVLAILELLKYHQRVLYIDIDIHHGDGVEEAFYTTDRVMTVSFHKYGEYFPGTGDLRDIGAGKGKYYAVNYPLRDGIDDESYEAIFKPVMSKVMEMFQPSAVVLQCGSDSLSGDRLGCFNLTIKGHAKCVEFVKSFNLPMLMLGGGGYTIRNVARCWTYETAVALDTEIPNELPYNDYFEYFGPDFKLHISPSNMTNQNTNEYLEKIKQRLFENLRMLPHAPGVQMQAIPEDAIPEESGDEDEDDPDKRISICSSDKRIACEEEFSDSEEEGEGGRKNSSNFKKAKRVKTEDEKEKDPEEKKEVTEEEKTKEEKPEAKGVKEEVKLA

| Compound | IC50 (Histone deacetylase 1 [1]) [nM] | Ratio IC50 (Histone deacetylase 1 [3]) | half-life [5] [h] | half-life [6] [h] | Tmax [7] [h] | AUC(0-t) [8] [ng·h/mL] | AUC(0-inf) [9] [ng·h/mL] | bioavailability [10] [%] | IC50 (HCT-116) [nM] | IC50 (MCF7) [nM] | IC50 (A549 [2]) [nM] | Ratio IC50 (A549 [4]) |
| --- | --- | --- | --- | --- | --- | --- | --- | --- | --- | --- | --- | --- |
| Nc1ccccc1NC(=O)c1ccc(CCNC(=O)/C=C/c2c[nH]c3ccccc23)cc1 | 169 | – | – | – | – | – | – | – | 1570 | 5020 | 1280 | – |
| Cc1nc2ccccn2c1/C=C/C(=O)NCCc1ccc(C(=O)Nc2ccccc2N)cc1 | 178 | – | – | – | – | – | – | – | 1960 | 6800 | 1460 | – |
| Cc1nc2ccccn2c1/C=C/C(=O)NCc1ccc(C(=O)Nc2ccccc2N)cc1 | 173 | – | – | – | – | – | – | – | 1430 | 6220 | 1300 | – |
| Nc1ccccc1NC(=O)c1ccc(CNC(=O)OCc2cccnc2)cc1 [ENTINOSTAT] | – | – | – | – | – | – | – | – | 5100 | 7880 | 3130 | – |
| Nc1ccccc1NC(=O)c1ccc(CNC(=O)/C=C/c2c[nH]c3ccccc23)cc1 | 120 | 2 | – | – | – | – | – | – | 1220 | 2920 | 649 | – |

Second part, led by results:

| IC50 (Histone deacetylase 1 [1]) [nM] | Ratio IC50 (Histone deacetylase 1 [3]) | half-life [5] [h] | half-life [6] [h] | Tmax [7] [h] | AUC(0-t) [8] [ng·h/mL] | AUC(0-inf) [9] [ng·h/mL] | bioavailability [10] [%] | Compound | IC50 (HCT-116) [nM] | IC50 (MCF7) [nM] | IC50 (A549 [2]) [nM] | Ratio IC50 (A549 [4]) |
| --- | --- | --- | --- | --- | --- | --- | --- | --- | --- | --- | --- | --- |
| 154 | – | – | – | – | – | – | – | Nc1ccccc1NC(=O)c1ccc(CCNC(=O)/C=C/c2cnc3cccnn23)cc1 | 2300 | 4670 | 1150 | – |
| 118 | 2 | 1.87 | 8.22 | 1.17 | 6780 | 8610 | 76 | Nc1ccccc1NC(=O)c1ccc(CNC(=O)/C=C/c2cnc3cccnn23)cc1 | 1260 | 2870 | 723 | 5 |
| 129 | – | – | – | – | – | – | – | Nc1ccccc1NC(=O)c1ccc(CNC(=O)/C=C/c2cnc3ccccn23)cc1 | 2300 | 4130 | 832 | – |
| 131 | – | – | – | – | – | – | – | Nc1cc(F)ccc1NC(=O)c1ccc(CNC(=O)/C=C/c2cnc3cccnn23)cc1 | 2260 | 5510 | 791 | – |
| 137 | – | – | – | – | – | – | – | Nc1ccc(F)cc1NC(=O)c1ccc(CNC(=O)/C=C/c2cnc3cccnn23)cc1 | 4290 | 11000 | 812 | – |
| 217 | – | – | – | – | – | – | – | Nc1ccccc1NC(=O)c1ccc(CCNC(=O)/C=C/c2cnc3ccccn23)cc1 | 4500 | 9440 | 1470 | – |
